Blank lines part the entries; values can stand above or below the compound they belong to.
How the values were obtained:
[1] = biological target: Serine/threonine-protein kinase 33 (Homo sapiens) (UniProt Q9BYT3); assay: Selectivity interaction (KinomeScan (DiscoverX)) EUB0001049a STK33; details: at 1 µM
[2] = biological target: T1, Ephrin type-A receptor 6 (Homo sapiens) (UniProt Q9UF33); assay: Selectivity interaction (KinomeScan (DiscoverX)) EUB0001049a EPHA6; details: at 1 µM
T1 sequence (whole entry): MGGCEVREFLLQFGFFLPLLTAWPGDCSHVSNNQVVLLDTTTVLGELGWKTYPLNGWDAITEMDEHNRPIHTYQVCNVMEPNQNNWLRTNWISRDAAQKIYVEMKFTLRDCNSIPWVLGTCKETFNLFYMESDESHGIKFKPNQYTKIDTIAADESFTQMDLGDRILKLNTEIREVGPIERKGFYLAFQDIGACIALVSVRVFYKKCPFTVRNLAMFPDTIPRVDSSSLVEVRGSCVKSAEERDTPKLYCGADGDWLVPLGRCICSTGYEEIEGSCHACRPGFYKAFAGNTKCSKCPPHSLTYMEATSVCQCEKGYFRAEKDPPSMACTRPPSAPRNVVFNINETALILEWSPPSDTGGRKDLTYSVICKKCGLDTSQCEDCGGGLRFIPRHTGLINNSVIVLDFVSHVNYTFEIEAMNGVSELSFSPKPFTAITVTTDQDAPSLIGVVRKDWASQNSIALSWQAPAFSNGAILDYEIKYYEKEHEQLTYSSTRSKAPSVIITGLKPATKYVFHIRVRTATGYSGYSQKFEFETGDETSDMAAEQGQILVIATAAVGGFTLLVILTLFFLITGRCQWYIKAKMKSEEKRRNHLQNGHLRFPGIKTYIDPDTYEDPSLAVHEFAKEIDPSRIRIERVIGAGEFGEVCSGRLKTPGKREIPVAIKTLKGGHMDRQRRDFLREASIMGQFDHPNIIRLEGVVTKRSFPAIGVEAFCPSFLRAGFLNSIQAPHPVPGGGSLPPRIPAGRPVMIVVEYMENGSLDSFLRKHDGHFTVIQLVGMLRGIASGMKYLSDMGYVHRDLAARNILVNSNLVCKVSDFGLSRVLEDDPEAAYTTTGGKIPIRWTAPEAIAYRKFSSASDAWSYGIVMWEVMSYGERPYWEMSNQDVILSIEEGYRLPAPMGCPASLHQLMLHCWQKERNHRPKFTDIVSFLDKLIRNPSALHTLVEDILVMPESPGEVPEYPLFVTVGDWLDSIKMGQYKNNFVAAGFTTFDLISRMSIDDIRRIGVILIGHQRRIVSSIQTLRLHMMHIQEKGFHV

[3] = biological target: Mitogen-activated protein kinase 9 (Homo sapiens, UniProt P45984); assay: Selectivity interaction (Kinase panel (Invitrogen)) EUB0000639a MAPK9; details: at 200 nM
[4] = biological target: Serine/threonine-protein kinase 26 (Homo sapiens, UniProt Q9P289); assay: Selectivity interaction (ActivX KiNativ screen (kinase selectivity in THP-1 cell lysates)) EUB0000639a STK26; type: subcellular; details: lysate
[5] = biological target: T2, N-lysine methyltransferase KMT5A (Homo sapiens) (UniProt Q9NQR1); details: at 10 µM
T2 sequence (whole entry): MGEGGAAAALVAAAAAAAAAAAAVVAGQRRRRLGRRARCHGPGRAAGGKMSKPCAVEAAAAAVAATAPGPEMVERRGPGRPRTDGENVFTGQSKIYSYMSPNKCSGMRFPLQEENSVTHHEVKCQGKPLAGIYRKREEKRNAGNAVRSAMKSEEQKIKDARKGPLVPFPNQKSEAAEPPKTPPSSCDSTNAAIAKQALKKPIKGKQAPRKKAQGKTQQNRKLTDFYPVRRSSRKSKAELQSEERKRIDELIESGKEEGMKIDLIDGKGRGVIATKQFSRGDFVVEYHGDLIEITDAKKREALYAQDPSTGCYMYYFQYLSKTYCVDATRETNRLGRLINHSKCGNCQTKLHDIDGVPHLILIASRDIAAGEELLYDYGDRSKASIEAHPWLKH

[6] = biological target: T3, Cytoplasmic tyrosine-protein kinase BMX (Homo sapiens) (UniProt P51813); assay: Selectivity interaction (Kinase panel (Z-LYTE Assay)) EUB0001632a BMX; details: at 10 µM
T3 sequence (whole entry): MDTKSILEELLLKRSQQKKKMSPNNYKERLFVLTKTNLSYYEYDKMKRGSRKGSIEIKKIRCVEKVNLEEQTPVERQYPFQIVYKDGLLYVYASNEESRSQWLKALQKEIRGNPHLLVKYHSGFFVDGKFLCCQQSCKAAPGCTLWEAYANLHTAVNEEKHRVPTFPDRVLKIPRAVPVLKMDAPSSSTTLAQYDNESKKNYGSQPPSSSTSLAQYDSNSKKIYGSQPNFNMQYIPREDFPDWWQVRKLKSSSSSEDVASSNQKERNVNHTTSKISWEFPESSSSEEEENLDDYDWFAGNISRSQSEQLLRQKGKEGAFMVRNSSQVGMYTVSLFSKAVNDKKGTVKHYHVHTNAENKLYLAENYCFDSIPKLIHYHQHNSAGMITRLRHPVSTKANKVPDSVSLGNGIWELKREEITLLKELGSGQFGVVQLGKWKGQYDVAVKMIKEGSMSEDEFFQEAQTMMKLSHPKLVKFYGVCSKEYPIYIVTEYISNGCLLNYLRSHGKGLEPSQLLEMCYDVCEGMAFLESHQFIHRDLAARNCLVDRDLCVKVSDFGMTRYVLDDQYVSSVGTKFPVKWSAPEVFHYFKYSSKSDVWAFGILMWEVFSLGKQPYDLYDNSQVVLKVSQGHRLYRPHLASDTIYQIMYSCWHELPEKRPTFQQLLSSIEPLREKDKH

[7] = biological target: Cyclin-dependent kinase 15 (Homo sapiens) (UniProt Q96Q40); assay: Selectivity interaction (KinomeScan (DiscoverX)) EUB0000595a CDK15; details: at 10 µM
[8] = biological target: Serine/threonine-protein kinase OSR1 (Homo sapiens) (UniProt O95747); assay: Selectivity interaction (KinomeScan (DiscoverX)) EUB0000229b OXSR1; details: at 10 µM
[9] = biological target: Cyclin-dependent kinase 3 (Homo sapiens) (UniProt Q00526); assay: Selectivity interaction (KinomeScan (DiscoverX)) EUB0001079a CDK3; details: at 1 µM
[10] = biological target: Serine/threonine-protein kinase SBK1 (Homo sapiens) (UniProt Q52WX2); assay: Selectivity interaction (KinomeScan (DiscoverX)) EUB0001079a SBK1; details: at 1 µM
[11] = biological target: Bone morphogenetic protein receptor type-1A (Homo sapiens, UniProt P36894); assay: Selectivity interaction (KinomeScan (DiscoverX)) EUB0001619a BMPR1A; details: at 1 µM
[12] = biological target: Ribosomal protein S6 kinase alpha-2 (Homo sapiens) (UniProt Q15349); assay: Selectivity interaction (KinomeScan (DiscoverX)) EUB0000618a RPS6KA2; details: at 10 µM
[13] = biological target: Leukocyte tyrosine kinase receptor (Homo sapiens, UniProt P29376); assay: Selectivity interaction (KinomeScan (DiscoverX)) EUB0000607a LTK; details: at 10 µM
Leukocyte tyrosine kinase receptor, sequence (P29376 whole entry): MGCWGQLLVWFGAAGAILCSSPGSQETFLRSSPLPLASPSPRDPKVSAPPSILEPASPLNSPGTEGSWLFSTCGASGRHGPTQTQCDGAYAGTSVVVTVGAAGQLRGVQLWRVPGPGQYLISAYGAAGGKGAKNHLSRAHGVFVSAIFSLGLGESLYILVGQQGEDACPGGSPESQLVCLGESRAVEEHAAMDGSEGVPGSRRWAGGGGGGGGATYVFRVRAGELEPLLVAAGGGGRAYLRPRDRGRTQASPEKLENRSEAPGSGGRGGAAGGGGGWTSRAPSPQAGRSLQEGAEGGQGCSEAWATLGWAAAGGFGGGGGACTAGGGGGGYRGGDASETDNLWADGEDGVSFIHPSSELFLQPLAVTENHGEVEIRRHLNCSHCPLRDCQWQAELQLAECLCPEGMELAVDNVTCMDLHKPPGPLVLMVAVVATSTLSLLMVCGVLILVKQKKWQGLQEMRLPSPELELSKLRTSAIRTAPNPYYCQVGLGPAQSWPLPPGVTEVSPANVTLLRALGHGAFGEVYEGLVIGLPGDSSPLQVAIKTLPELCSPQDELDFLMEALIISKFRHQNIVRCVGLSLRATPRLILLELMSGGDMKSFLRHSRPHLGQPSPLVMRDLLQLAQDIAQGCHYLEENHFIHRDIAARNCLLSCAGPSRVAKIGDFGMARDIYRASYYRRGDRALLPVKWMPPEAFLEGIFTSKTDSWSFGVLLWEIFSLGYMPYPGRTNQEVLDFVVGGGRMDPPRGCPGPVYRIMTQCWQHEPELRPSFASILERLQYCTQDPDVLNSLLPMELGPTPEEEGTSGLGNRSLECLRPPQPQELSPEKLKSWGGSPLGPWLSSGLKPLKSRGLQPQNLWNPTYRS

Serine/threonine-protein kinase 26, sequence (Q9P289 2-416 limits assumed): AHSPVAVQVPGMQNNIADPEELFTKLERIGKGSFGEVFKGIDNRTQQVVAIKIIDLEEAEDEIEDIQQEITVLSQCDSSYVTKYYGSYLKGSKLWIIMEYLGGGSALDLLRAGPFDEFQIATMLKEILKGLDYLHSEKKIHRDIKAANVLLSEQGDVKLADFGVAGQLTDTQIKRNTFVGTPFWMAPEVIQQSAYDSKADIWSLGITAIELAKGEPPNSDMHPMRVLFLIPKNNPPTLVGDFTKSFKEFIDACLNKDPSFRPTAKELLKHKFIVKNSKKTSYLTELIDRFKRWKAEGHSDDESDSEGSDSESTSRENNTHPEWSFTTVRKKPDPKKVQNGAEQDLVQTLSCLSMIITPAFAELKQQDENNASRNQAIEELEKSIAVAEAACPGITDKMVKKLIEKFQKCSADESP
Cyclin-dependent kinase 15 (Homo sapiens), sequence (Q96Q40 whole entry): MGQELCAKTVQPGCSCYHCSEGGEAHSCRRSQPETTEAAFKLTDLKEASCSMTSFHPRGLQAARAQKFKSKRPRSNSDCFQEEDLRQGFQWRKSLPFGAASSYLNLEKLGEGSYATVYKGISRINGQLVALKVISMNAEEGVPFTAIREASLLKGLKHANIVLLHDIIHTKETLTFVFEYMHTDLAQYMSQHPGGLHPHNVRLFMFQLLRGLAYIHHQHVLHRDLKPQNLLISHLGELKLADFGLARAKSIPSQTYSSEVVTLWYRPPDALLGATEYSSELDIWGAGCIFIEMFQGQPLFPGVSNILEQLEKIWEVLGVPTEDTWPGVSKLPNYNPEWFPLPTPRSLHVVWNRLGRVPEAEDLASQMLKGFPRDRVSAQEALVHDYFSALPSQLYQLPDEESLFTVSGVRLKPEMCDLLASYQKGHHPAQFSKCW
Serine/threonine-protein kinase SBK1 (Homo sapiens), sequence (Q52WX2 whole entry): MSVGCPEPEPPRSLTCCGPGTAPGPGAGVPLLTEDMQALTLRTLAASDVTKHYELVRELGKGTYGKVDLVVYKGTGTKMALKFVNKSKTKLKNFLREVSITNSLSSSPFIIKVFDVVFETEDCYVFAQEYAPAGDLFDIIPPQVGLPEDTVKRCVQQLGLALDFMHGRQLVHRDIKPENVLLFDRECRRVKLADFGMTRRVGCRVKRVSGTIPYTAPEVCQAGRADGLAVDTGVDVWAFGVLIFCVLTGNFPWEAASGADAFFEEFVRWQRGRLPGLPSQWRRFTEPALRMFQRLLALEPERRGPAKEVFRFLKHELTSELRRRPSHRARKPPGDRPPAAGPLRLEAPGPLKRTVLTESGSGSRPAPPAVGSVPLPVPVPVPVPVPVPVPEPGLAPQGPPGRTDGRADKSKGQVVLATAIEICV
Mitogen-activated protein kinase 9, sequence (P45984 whole entry, looked up): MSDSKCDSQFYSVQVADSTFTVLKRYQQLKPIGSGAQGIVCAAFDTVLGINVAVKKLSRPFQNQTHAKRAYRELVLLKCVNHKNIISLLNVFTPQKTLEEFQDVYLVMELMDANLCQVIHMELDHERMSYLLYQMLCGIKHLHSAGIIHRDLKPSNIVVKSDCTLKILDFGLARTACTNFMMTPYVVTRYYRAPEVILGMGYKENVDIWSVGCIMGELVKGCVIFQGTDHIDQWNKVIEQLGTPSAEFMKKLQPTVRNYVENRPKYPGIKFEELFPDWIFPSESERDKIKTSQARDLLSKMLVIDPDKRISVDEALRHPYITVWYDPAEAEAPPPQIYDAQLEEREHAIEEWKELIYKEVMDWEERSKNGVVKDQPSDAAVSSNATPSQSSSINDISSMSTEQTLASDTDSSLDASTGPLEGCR
Cyclin-dependent kinase 3 (Homo sapiens), sequence (Q00526 whole entry, looked up): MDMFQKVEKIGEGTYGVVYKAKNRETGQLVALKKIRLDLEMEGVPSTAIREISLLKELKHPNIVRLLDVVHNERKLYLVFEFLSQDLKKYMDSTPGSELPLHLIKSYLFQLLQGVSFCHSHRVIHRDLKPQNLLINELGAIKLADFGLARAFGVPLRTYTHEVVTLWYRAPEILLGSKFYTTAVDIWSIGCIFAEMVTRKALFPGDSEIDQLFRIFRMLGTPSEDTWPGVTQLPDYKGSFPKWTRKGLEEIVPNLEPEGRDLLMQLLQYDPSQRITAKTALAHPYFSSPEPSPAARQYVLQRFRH
Serine/threonine-protein kinase OSR1 (Homo sapiens), sequence (O95747 2-527 limits assumed): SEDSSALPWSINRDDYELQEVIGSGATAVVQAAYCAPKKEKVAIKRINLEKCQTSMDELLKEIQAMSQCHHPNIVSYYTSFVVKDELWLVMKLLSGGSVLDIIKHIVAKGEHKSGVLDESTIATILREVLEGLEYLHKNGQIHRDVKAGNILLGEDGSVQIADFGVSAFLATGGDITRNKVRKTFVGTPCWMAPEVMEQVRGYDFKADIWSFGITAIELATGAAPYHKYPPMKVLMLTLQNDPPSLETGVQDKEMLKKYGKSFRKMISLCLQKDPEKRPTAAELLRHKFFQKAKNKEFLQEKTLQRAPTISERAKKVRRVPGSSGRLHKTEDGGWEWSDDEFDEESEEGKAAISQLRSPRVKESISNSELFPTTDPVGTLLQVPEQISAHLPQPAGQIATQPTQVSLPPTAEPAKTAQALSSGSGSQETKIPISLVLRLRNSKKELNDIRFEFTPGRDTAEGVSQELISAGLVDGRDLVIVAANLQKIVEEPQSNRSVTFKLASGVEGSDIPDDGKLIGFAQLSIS
Ribosomal protein S6 kinase alpha-2 (Homo sapiens), sequence (Q15349 whole entry): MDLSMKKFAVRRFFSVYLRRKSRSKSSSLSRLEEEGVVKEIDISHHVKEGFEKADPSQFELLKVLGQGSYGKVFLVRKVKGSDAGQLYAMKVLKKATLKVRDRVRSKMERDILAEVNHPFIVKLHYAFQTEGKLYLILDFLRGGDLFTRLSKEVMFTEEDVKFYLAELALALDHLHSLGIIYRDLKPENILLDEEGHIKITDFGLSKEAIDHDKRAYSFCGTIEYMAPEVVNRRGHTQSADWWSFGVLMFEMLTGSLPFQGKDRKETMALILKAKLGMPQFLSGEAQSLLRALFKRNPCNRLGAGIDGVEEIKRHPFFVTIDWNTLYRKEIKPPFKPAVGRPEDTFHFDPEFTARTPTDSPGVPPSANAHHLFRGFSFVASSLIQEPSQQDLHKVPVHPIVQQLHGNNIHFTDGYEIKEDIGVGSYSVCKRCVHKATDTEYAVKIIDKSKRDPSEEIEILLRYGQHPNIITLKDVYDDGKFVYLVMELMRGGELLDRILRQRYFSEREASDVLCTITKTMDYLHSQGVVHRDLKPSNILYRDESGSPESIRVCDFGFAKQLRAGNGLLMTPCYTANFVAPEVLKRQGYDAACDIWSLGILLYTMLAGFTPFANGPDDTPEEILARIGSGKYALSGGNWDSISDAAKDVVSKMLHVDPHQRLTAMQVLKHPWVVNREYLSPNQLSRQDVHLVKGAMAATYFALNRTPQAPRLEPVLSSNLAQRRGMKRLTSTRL
Bone morphogenetic protein receptor type-1A, sequence (P36894 whole entry): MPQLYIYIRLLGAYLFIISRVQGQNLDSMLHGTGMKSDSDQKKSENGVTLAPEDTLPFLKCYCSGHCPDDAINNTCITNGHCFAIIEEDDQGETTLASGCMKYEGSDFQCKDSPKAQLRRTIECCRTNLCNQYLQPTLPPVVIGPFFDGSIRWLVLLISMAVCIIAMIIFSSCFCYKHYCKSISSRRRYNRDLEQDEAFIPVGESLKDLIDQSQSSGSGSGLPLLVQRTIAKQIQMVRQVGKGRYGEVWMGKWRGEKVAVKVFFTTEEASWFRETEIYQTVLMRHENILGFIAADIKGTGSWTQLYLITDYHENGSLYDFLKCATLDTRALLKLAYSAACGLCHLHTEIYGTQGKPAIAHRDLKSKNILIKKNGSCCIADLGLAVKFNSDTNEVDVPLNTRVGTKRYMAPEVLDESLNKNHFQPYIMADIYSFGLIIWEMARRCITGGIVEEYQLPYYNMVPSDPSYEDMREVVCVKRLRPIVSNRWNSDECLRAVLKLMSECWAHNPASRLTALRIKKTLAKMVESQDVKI

Structure (SMILES): COc1cc(Nc2nc(C)cc(-c3cnn4nc(OC)ccc34)n2)cc(C(F)(F)F)c1
% of control [1]: 94%
% of control [2]: 95%

% of inhibition [3]: 2.83%
% of inhibition ([4]; at 0.01 µM): -5.3%
% of inhibition ([4]; at 0.04 µM): 19.1%
% of inhibition ([4]; at 0.2 µM): -26.4%
% of inhibition ([4]; at 1 µM): 10.2%
% of inhibition ([4]; at 5 µM): 0.7%
Structure (SMILES): CC[C@@H]1[C@H](F)C(=O)N[C@@H]1COc1nccc2cc(C(N)=O)c(OC)cc12 [ZIMLOVISERTIB]

% activity [5]: > 90%
Structure (SMILES): CNCCN1CCC(c2cc(CN(C)C(=O)c3cccc(Oc4ccccc4)c3)ccn2)CC1

% of control [6]: 2.67%
Structure (SMILES): Cn1cc(-n2cnc3c(NCc4nc5cc(Cl)c(Cl)cc5[nH]4)nc(N4CCOCC4)nc32)cn1

Structure (SMILES): COCC(=O)NC/C=C/c1ccc2ncnc(Nc3ccc(Oc4ccc(C)nc4)c(C)c3)c2c1 [CP-724714]
% of control [7]: 71%

Structure (SMILES): COc1cc(N(C)c2ccnc3ccc(C(F)(F)F)cc23)cc(OC)c1OC
% binding [8]: 79%

Structure (SMILES): Nc1cnc(N2CCc3cc(S(=O)(=O)Nc4c(F)cc(Cl)cc4F)cc(N4CCCC4=O)c32)nc1 [TP-020n]
% of control [9]: 100%
% of control [10]: 83%

Structure (SMILES): N#Cc1cccc(-c2c[nH]c3ncnc(N4CCOCC4)c23)c1
% of control [11]: 98%

Structure (SMILES): O[C@H]1CC[C@H](Nc2ncc3nc(Nc4c(F)cc(F)cc4F)n([C@H]4CCOC4)c3n2)CC1
% of control [12]: 78%

Structure (SMILES): CNC(=O)Nc1ccc(-c2nc(N3CC4CCC(C3)O4)c3cnn(C4CCC5(CC4)OCCO5)c3n2)cc1
% of control [13]: 68%

— ChEMBL document CHEMBL5465560, “Selectivity Literature for EUbOPEN Chemogenomic Library” (2024)
